# Experimental data published in BindingDB's records for doi:10.1016/s0960-894x(01)00039-7 (Glaxosmithkline, 2001).
# Target: Tyrosine--tRNA ligase (Staphylococcus aureus)
# Assay: Inhibitory activity against Staphylococcus aureus tyrosyl tRNA synthetase (YRS) using aminoacylation assay
smiles,measurement,value
"N[C@@H](Cc1ccc(O)cc1)C(=O)N[C@@H](C(=O)O)[C@@H]1OC[C@H](O)[C@H](O)[C@H]1O [[2-Amino-3-((S)-4-hydroxy-phenyl)-propionylamino]-((2S,3R,4S,5S)-3,4,5-trihydroxy-tetrahydro-pyran-2-yl)-acetic acid]",IC50,260 nM
